molecular target: T1, sGC α1/β1 heterodimer stably expressed in CHO-K1 cell line (CHO-K1/sGC) (Homo sapiens, UniProt Q02108+Q02153); assay: Cell-based sGC Functional Assay (CASA Assay), cGMP generation; details: CHO-K1/sGC cells, 1 hr at 37° C., cGMP by HTRF, 4P fit; presence or absence of 1 μM DETA-NO not given; read-out: IP (nM) (inflection point)
T1 construct: expressed in transfected cells
T1 sequence (Q02108 1-690): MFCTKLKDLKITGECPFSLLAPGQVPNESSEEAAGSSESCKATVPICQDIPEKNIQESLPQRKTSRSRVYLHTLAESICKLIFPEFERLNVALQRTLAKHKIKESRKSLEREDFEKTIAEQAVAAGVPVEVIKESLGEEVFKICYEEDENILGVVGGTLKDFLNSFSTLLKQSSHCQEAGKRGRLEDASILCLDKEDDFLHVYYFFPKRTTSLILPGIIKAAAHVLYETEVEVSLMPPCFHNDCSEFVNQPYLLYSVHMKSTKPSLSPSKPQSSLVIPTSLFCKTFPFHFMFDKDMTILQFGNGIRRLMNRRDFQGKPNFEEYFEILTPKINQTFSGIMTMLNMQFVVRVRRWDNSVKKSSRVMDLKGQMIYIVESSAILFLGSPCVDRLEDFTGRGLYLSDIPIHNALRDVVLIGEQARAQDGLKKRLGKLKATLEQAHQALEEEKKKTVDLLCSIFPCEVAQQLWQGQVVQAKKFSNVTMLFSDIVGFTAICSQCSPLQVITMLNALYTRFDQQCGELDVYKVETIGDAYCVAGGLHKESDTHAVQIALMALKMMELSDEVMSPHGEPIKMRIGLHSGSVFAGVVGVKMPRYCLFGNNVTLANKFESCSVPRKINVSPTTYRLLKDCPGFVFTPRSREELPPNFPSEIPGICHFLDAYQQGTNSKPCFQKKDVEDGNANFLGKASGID
T1 sequence (Q02153 1-619): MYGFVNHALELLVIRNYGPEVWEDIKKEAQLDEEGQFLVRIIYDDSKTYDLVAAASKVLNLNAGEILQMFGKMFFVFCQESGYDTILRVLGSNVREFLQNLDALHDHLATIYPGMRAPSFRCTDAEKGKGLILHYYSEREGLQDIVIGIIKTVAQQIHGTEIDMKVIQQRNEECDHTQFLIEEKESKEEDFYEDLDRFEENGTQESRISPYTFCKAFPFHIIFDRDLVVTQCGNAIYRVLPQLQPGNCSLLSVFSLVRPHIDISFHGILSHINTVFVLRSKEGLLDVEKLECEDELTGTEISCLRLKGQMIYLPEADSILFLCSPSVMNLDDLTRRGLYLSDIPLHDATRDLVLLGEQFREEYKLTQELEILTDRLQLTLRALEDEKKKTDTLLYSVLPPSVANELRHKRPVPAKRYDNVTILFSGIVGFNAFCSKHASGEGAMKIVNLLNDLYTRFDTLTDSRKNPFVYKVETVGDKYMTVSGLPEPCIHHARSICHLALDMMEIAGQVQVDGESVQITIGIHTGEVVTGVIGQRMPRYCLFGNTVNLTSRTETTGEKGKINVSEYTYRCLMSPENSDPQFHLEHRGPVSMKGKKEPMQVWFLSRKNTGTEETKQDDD
In short: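 CHO-K1 cells stably expressing human sGC α1/β1 (4×10^5/mL, 0.5 mM IBMX) were treated with compounds (2.5% DMSO final) ± 1 μM DETA-NO for 1 hr at 37° C. Intracellular cGMP measured by HTRF. Activity expressed as % of Compound A maximal cGMP; IP and maximum fold induction from 4P fit.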

| SMILES | EC50 |
| --- | --- |
| Cc1nc2c(CCC(F)(F)C(F)(F)F)nc(-c3nc(O)c4c(n3)NC(=O)[C@@]4(C)c3ccc(F)cc3)cn2n1 [Example 133B, (S)-5-(4-fluorophenyl)-4-hydroxy-5-methyl-2-(2-methyl-8-(3,3,4,4,4-pentafluorobutyl)-[1,2,4]triazolo[1,5-a]pyrazin-6-yl)-5H-pyrrolo[2,3-d]pyrimidin-6(7H)-one] | 856 nM |
| CC1(c2ccc(Cl)cn2)C(=O)Nc2nc(-c3cn4ncnc4c(CCCC(F)(F)F)n3)nc(O)c21 (stereo not shown) [Example 134A, 5-(5-chloropyridin-2-yl)-4-hydroxy-5-methyl-2-(8-(4,4,4-trifluorobutyl)-[1,2,4]triazolo[1,5-a]pyrazin-6-yl)-5H-pyrrolo[2,3-d]pyrimidin-6(7H)-one] | 857 nM |
| CC1(c2ccc(F)cn2)C(=O)Nc2nc(-c3cn4ncnc4c(CCCC(F)(F)F)n3)nc(O)c21 (stereo not shown) [Example 136B, 5-(5-fluoropyridin-2-yl)-4-hydroxy-5-methyl-2-(8-(4,4,4-trifluorobutyl)-[1,2,4]triazolo[1,5-a]pyrazin-6-yl)-5H-pyrrolo[2,3-d]pyrimidin-6(7H)-one] | 514 nM |
| CC1(c2ccc(C(F)(F)F)cc2)C(=O)Nc2nc(-c3cn4ncnc4c(CCCC(F)(F)F)n3)nc(O)c21 (stereo not shown) [Example 137B, 4-hydroxy-5-methyl-2-(8-(4,4,4-trifluorobutyl)-[1,2,4]triazolo[1,5-a]pyrazin-6-yl)-5-(4-(trifluoromethyl)phenyl)-5H-pyrrolo[2,3-d]pyrimidin-6(7H)-one] | 597 nM |
| CC1(c2ccc(Cl)c(F)c2)C(=O)Nc2nc(-c3cn4ncnc4c(CCCC(F)(F)F)n3)nc(O)c21 (stereo not shown) [Example 138B, 5-(4-chloro-3-fluorophenyl)-4-hydroxy-5-methyl-2-(8-(4,4,4-trifluorobutyl)-[1,2,4]triazolo[1,5-a]pyrazin-6-yl)-5H-pyrrolo[2,3-d]pyrimidin-6(7H)-one] | 344 nM |
| O=C1Nc2nc(-c3cn4ncnc4c(CCCC(F)(F)F)n3)nc(O)c2C1(c1ccc(F)cc1)C1CC1 (stereo not shown) [Example 139B, 5-cyclopropyl-5-(4-fluorophenyl)-4-hydroxy-2-(8-(4,4,4-trifluorobutyl)-[1,2,4]triazolo[1,5-a]pyrazin-6-yl)-5H-pyrrolo[2,3-d]pyrimidin-6(7H)-one] | 673 nM |
| O=C1Nc2nc(-c3cn4ncnc4c(CCCC(F)(F)F)n3)nc(O)c2C1(c1ccc(C(F)(F)F)cc1)C1CC1 (stereo not shown) [Example 144A, 5-cyclopropyl-4-hydroxy-2-(8-(4,4,4-trifluorobutyl)-[1,2,4]triazolo[1,5-a]pyrazin-6-yl)-5-(4-(trifluoromethyl)phenyl)-5H-pyrrolo[2,3-d]pyrimidin-6(7H)-one] | 1300 nM |
| CC1(c2ccccn2)C(=O)Nc2nc(-c3cn4ncnc4c(CCCC(F)(F)F)n3)nc(O)c21 (stereo not shown) [Example 145B, 4-hydroxy-5-methyl-5-(pyridin-2-yl)-2-(8-(4,4,4-trifluorobutyl)-[1,2,4]triazolo[1,5-a]pyrazin-6-yl)-5H-pyrrolo[2,3-d]pyrimidin-6(7H)-one] | 1220 nM |
| COc1ccc(C2(C)C(=O)Nc3nc(-c4cn5ncnc5c(CCCC(F)(F)F)n4)nc(O)c32)nc1 (stereo not shown) [Example 148A, 4-hydroxy-5-(5-methoxypyridin-2-yl)-5-methyl-2-(8-(4,4,4-trifluorobutyl)-[1,2,4]triazolo[1,5-a]pyrazin-6-yl)-5H-pyrrolo[2,3-d]pyrimidin-6(7H)-one] | 1090 nM |
| Cc1ccc(C2(C)C(=O)Nc3nc(-c4cn5ncnc5c(CCCC(F)(F)F)n4)nc(O)c32)nc1 (stereo not shown) [Example 149B, 4-hydroxy-5-methyl-5-(5-methylpyridin-2-yl)-2-(8-(4,4,4-trifluorobutyl)-[1,2,4]triazolo[1,5-a]pyrazin-6-yl)-5H-pyrrolo[2,3-d]pyrimidin-6(7H)-one] | 990 nM |
| O=C1Nc2nc(-c3cn4ncnc4c(CCCC(F)(F)F)n3)nc(O)c2C1(c1ccc(F)cn1)C1CC1 (stereo not shown) [Example 150A, 5-cyclopropyl-5-(5-fluoropyridin-2-yl)-4-hydroxy-2-(8-(4,4,4-trifluorobutyl)-[1,2,4]triazolo[1,5-a]pyrazin-6-yl)-5,7-dihydro-6H-pyrrolo[2,3-d]pyrimidin-6-one] | 1220 nM |
| C[C@@]1(c2ccc(F)cc2)C(=O)Nc2nc(-c3cn4ncnc4c(CCC(F)(F)F)n3)nc(O)c21 [Example 151A, (S)-5-(4-fluorophenyl)-4-hydroxy-5-methyl-2-(8-(3,3,3-trifluoropropyl)-[1,2,4]triazolo[1,5-a]pyrazin-6-yl)-5,7-dihydro-6H-pyrrolo[2,3-d]pyrimidin-6-one] | 1490 nM |
| CC1(c2ccc(Cl)c(F)c2)C(=O)Nc2nc(-c3cn4ncnc4c(CCC(F)(F)F)n3)nc(O)c21 (stereo not shown) [Example 153B, 5-(4-chloro-3-fluorophenyl)-4-hydroxy-5-methyl-2-(8-(3,3,3-trifluoropropyl)-[1,2,4]triazolo[1,5-a]pyrazin-6-yl)-5H-pyrrolo[2,3-d]pyrimidin-6(7H)-one] | 310 nM |

The next compounds have a lower EC50 than those just listed; values first:

| EC50 | SMILES |
| --- | --- |
| 301 nM | CC1(c2ccccc2)C(=O)Nc2nc(-c3cn4ncnc4c(CCCC(F)(F)F)n3)nc(O)c21 (stereo not shown) [Example 143B, 4-hydroxy-5-methyl-5-phenyl-2-(8-(4,4,4-trifluorobutyl)-[1,2,4]triazolo[1,5-a]pyrazin-6-yl)-5H-pyrrolo[2,3-d]pyrimidin-6(7H)-one] |
| 277 nM | O=C1Nc2nc(-c3cn4ncnc4c(CCCC(F)(F)F)n3)nc(O)c2C1(c1ccc(Cl)cc1)C1CC1 (stereo not shown) [Example 140B, 5-(4-chlorophenyl)-5-cyclopropyl-4-hydroxy-2-(8-(4,4,4-trifluorobutyl)-[1,2,4]triazolo[1,5-a]pyrazin-6-yl)-5H-pyrrolo[2,3-d]pyrimidin-6(7H)-one] |
| 214 nM | CC1(c2ccc(F)c(Cl)c2)C(=O)Nc2nc(-c3cn4ncnc4c(CCCC(F)(F)F)n3)nc(O)c21 (stereo not shown) [Example 147B, 5-(3-chloro-4-fluorophenyl)-4-hydroxy-5-methyl-2-(8-(4,4,4-trifluorobutyl)-[1,2,4]triazolo[1,5-a]pyrazin-6-yl)-5,7-dihydro-6H-pyrrolo[2,3-d]pyrimidin-6-one] |
| 207 nM | CC1(c2ccc(Cl)cc2)C(=O)Nc2nc(-c3cn4ncnc4c(CCCC(F)(F)F)n3)nc(O)c21 (stereo not shown) [Example 142A, 5-(4-chlorophenyl)-4-hydroxy-5-methyl-2-(8-(4,4,4-trifluorobutyl)-[1,2,4]triazolo[1,5-a]pyrazin-6-yl)-5H-pyrrolo[2,3-d]pyrimidin-6(7H)-one] |
| 183 nM | O=C1Nc2nc(-c3cn4ncnc4c(CCCC(F)(F)F)n3)nc(O)c2C1(c1ccc(F)c(F)c1)C1CC1 (stereo not shown) [Example 141A, 5-cyclopropyl-5-(3,4-difluorophenyl)-4-hydroxy-2-(8-(4,4,4-trifluorobutyl)-[1,2,4]triazolo[1,5-a]pyrazin-6-yl)-5H-pyrrolo[2,3-d]pyrimidin-6(7H)-one] |
| 183 nM | C[C@@]1(c2ccc(F)cc2)C(=O)Nc2nc(-c3cn4ncnc4c(CCCC(F)(F)F)n3)nc(O)c21 [Example 135A] |
| 133 nM | CC1(c2ccc(Cl)cc2)C(=O)Nc2nc(-c3cn4ncnc4c(CCC(F)(F)F)n3)nc(O)c21 (stereo not shown) [Example 152A, 5-(4-chlorophenyl)-4-hydroxy-5-methyl-2-(8-(3,3,3-trifluoropropyl)-[1,2,4]triazolo[1,5-a]pyrazin-6-yl)-5H-pyrrolo[2,3-d]pyrimidin-6(7H)-one] |
| 45.5 nM | CC1(c2ccc(F)c(F)c2)C(=O)Nc2nc(-c3cn4ncnc4c(CCCC(F)(F)F)n3)nc(O)c21 (stereo not shown) [Example 146B, 5-(3,4-difluorophenyl)-4-hydroxy-5-methyl-2-(8-(4,4,4-trifluorobutyl)-[1,2,4]triazolo[1,5-a]pyrazin-6-yl)-5H-pyrrolo[2,3-d]pyrimidin-6(7H)-one] |

same assay, conditions: CHO-K1/sGC cells, 1 hr at 37° C., cGMP by HTRF; presence or absence of 1 μM DETA-NO not given; read-out: % Act. (percent activation relative to maximum cGMP production of Compound A = 100%)

| Emax | SMILES |
| --- | --- |
| 70% | CC1(c2ccc(Cl)cc2)C(=O)Nc2nc(-c3cn4ncnc4c(CCC(F)(F)F)n3)nc(O)c21 (stereo not shown) [Example 152A, 5-(4-chlorophenyl)-4-hydroxy-5-methyl-2-(8-(3,3,3-trifluoropropyl)-[1,2,4]triazolo[1,5-a]pyrazin-6-yl)-5H-pyrrolo[2,3-d]pyrimidin-6(7H)-one] |
